# What was measured:
# wild-type HAdV5 [1] = test: Nuclear-associated HAdV genomes (qPCR after nuclear isolation); assay type: cell-based, human adenovirus (HAdV5); conditions: 10-fold IC50; 45 min after synchronized infection; A549
# Experimental: Nuclear delivery of HAdV genomes was assessed using qPCR following nuclear isolation from infected cells. Briefly, 1 × 10^6 A549 cells in 6-well plates were infected either with wild-type HAdV5 at an MOI of 2,000 vp/cell in the presence of a 10-fold IC50 concentration of the compounds obtained in the plaque assay or the same volume of DMSO as the positive control. Forty-five minutes after infection, the A549 cells were trypsinized, collected, and washed twice with PBS. The cell pellet was resuspended in 500 μL of 1×hypotonic buffer (20 mM Tris-HCl pH 7.4, 10 mM NaCl, 3 mM MgCl2) and incubated for 15 min at 4°C. Then, 25 μL of NP-40 was added and the samples were vortexed. The homogenates were centrifuged for 10 min at 835 g at 4°C. Following the removal of the cytoplasmic fraction (supernatant), HAdV DNA was isolated from the nuclear (pellet) and cytoplasmic fractions using the E.Z.N.A.® Tissue DNA Kit (Omega Bio-tek, Norcross, GA).
# wild-type HAdV5 [2] = test: HAdV yield reduction (burst) assay, TCID50 end-point dilution; assay type: cell-based, human adenovirus (HAdV5); conditions: 10-fold IC50 concentration; TCID50/ml compound vs. DMSO; A549 cells; 48 h; MOI 100 vp/cell
# Experimental: A549 cells (1.5 × 10^5 cells/well in a 24-well plate) were incubated 24 h in 500 μL of complete DMEM and they were infected with wild-type HAdV5 (MOI 100 vp/cell) when more than 90% of confluency was observed. Infected cells were incubated for 48 h at 37°C in 500 μL of either complete DMEM containing 10-fold IC50 concentration of compounds obtained in the plaque assay or the same volume of DMSO (positive control). After 48 h, the cells were harvested and subjected to three rounds of freeze/thaw. Serial dilutions of the clarified lysates were titrated against A549 cells (3 × 10^4 cells/well in a 96-well plate) and TCID50 values were calculated using an end-point dilution method ([Reed and Muench, 1938]).
# HAdV5 = test: HAdV-mediated endosome disruption (α-sarcin co-delivery, HPG incorporation); assay type: cell-based, human adenovirus (HAdV5)
# Experimental: A549 cells (2 × 10^4 cells/well) were incubated in DMEM without cysteine or methionine supplemented with 10% dialyzed FBS [DMEM(−)] in black 96-well plates for 1 h prior to infection. Three-fold serial dilutions (0.45 ng–1,000 ng) of HAdV5, or AdV2ts1 were preincubated with cells in the presence of 10-fold IC50 concentration of the compounds obtained in the plaque assay or the same volume of DMSO for positive control for 1 h. The medium was then removed and replaced with 50 μL DMEM(−) containing 0.1 mg/ml α-sarcin (Santa Cruz Biotechnology, Dallas, Texas, USA) and drug mixtures. After 1 h at 37°C, the Click-iT L-homopropargylglycine (HPG) Alexa Fluor 488 Protein Synthesis Assay Kits (Invitrogen) was used to analyse protein synthesis according to the manufacturer’s instructions. The incorporation of the amino acid analogue of methionine HPG containing Alexa Fluor 488 azide was measured using a Typhoon 9410 imager (GE Healthcare Life Sciences) and calculated by subtracting the background level of the control well containing HPG and α-sarcin but not the virus (100% incorporation).
# HAdV5-GFP [3] = test: Initial rapid screening, HAdV5-mediated GFP expression in A549 cells; assay type: cell-based, human adenovirus (HAdV5); conditions: 50 µM, 2,000 vp/cell, 48 h
# Experimental: An initial rapid screening was performed using human A549 cells (3 × 10^5 cells/well) infected with HAdV5-GFP with a multiplicity of infection (MOI) of 2,000 vp/cell in the presence of 50 μM of the candidate antiviral compounds. Briefly, a standard infection curve was generated in parallel by infecting cells in the absence of compounds using serial two-fold dilutions of virus. Cells, virus and compounds were incubated for 48 h at 37°C and 5% CO2. Infection, as measured by HAdV5-mediated GFP expression, was analyzed using a Typhoon 9410 imager (GE Healthcare Life Sciences), and quantified with ImageQuantTL (GE Healthcare Life Sciences). All reactions were done in triplicate.
# HCMV = test: Impact on HCMV replication (qPCR of HCMV DNA in HFF); assay type: cell-based, human cytomegalovirus; conditions: 2-fold IC50 (HAdV plaque assay), 72 h
# Experimental: To test the anti-HCMV activity of these rotenolone-related compounds, human foreskin fibroblasts (HFF; ATCC, Manassas, VA) were seeded in a 24-well plate (8.3 × 10^4 cells/well), infected with HCMV (MOI 0.05 vp/cell), and incubated in complete DMEM in the presence of either 2-fold IC50 concentration of each compound obtained in the plaque assay against HAdV or the same volume of DMSO (positive control) in duplicate. The cells were incubated for 72 h at 37°C and 5% CO2 and HCMV DNA was purified from the cell lysate using E.Z.N.A Tissue DNA Kit (Omega Biotek, Norcross, GA, USA) following the manufacturer’s instructions. The qPCR primers, conditions, and protocols were the same as previously reported ([Mazzotta et al., 2020b]).
# HAdV5-GFP [4] = test: microbe, parasite or virus in culture; assay type: cell-based, human adenovirus (HAdV5); conditions: HAdV5-GFP; 293β5 cells; MOI 0.06 vp/cell; 7 days; read-out: IC50 plaque assay
# Experimental: Compounds were tested using low MOI infections (0.06 vp/cell), initially at concentrations of 10 μM and subsequently in a dose-response assay ranging from 10 μM to 2.44 nM in a plaque assay. Briefly, 293β5 cells were seeded in 6-well plates at a density of 1 × 10^6 cells per well in duplicate for each condition. When the cells reached 80%–90% confluency, they were infected with HAdV5-GFP and rocked for 2 h at 37°C. After the incubation, the inoculum was removed and the cells were washed once with PBS. Cells were then carefully overlaid with equal parts of 4 mL/well 1.6% ([…]) Difco Agar Noble (Becton, Dickinson & Co., Sparks, MD, USA) and 2× Eagle’s Minimum Essential Medium (EMEM; BioWhittaker) supplemented with 2×penicillin/streptomycin, 2× L-glutamine, and 10% FBS. The mixture also contained the compounds in the concentration ranges described above. Following incubation for 7 days at 37°C, plates were scanned with a Typhoon FLA 9000 imager (GE Healthcare Life Sciences) and the formed plaques were quantified with ImageJ ([Schneider et al., 2012]). Plaque counting was performed to calculate the 50% inhibitory concentration (IC50) of each compound using the statistical software GraphPad Prism 6.
# A549 cells = test: Cytotoxicity assay (AlamarBlue); assay type: cell-based, Human; conditions: 48 h
# Experimental: The cytotoxicity of the molecules was analyzed using the commercial kit AlamarBlue® (Invitrogen, Ref. DAL1025) according to the manufacturer’s instructions. Briefly, A549 cells were seeded at a density of 5 × 10^3 cells per well in 96-well plates, and decreasing serial dilutions of each molecule were diluted in 100 μL of DMEM starting at 200 μM. The cells were then incubated at 37°C for 48 h following the manufacturer’s protocol. The cytotoxic concentration 50% (CC50) value was obtained using the statistical software GraphPad Prism 6. The assay was performed in duplicate.
# p53/MDM2 complex = assay type: cell-based, Human; conditions: HAdV5-infected A549 cells; 10-fold IC50; 24 h
# p53/MDM2 complex, sequence (P04637 whole entry): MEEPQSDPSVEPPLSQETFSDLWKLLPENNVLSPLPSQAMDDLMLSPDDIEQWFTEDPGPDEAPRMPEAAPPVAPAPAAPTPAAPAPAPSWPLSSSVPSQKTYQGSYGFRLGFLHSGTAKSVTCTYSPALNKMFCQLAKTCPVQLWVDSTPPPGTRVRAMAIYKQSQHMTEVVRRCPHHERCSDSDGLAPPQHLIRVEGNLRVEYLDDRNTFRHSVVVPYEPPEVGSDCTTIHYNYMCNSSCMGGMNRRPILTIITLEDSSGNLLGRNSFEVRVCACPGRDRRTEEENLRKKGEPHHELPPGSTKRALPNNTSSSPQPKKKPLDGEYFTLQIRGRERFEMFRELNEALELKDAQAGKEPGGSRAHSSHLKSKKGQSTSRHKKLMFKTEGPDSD
# p53/MDM2 complex, sequence (Q00987 whole entry, further chain): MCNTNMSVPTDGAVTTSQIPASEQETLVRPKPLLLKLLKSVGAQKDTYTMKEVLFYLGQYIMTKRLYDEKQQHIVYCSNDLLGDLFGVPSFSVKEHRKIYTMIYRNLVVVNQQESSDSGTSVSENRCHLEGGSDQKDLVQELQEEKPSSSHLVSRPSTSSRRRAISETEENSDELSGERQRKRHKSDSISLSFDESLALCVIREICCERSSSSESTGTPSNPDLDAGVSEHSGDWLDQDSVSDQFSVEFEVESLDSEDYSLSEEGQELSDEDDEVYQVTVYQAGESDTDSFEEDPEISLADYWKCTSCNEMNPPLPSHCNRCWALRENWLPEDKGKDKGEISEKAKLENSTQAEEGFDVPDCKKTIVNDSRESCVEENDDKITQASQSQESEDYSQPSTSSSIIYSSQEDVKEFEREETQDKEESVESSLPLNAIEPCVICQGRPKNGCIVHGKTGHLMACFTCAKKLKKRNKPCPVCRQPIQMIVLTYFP
# Experimental: A549 cells were seeded at a density of 1.5 × 10^5 cells per well in a 24-well plate at a high density and 3.75 × 10^4 cells per well at a low density. […] The culture medium was then aspirated and washed with 1X with cold PBS. Later, 200 μL RIPA Lysis Buffer (1% v/v NP-40, 20 mM Tris-HCL pH 7.4, 5 mM Sodium Pyrophosphate, 5 mM EDTA) with freshly added proteinase inhibitor cocktail (Thermo Fisher Scientific) was added to each well and swirled to distribute it evenly. Cells were then scraped and collected to incubate them for 30 min on ice and finally centrifuged at 13,000 × g for 5 min at 4°C. […] This assay was performed in triplicate.
substance,measurement,setting,value
"(2R,6S,6aR,12aS)-8,9-dimethoxy-2-(prop-1-en-2-yl)-1,2,6,6a,12,12a-hexahydrochromeno[3,4-b]furo[2,3-h]chromen-6-ol [Rotenolone]",accessibility of HAdV genomes to the nucleus,wild-type HAdV5 [1],did not block
same,Virus Yield Fold-reduction,wild-type HAdV5 [2],1.3E+04 ± 4582.5 fold
same,HPG incorporation,"HAdV5; compared with a control without α-sarcin, 10-fold IC50, independent of virus concentration",approximately 30%
same,attenuation of HAdV-mediated endosomolysis,HAdV5; α-sarcin assay,did not attenuate
same,inhibition of HAdV5-GFP transgene expression,HAdV5-GFP [3],100%
same,inhibition of HCMV replication,HCMV,85.2%
same,IC50,HAdV5-GFP [4],0.03 µM
same,CC50,A549 cells,17.1 ± 0.4 µM
same,"concentration of p53/MDM2 complexes, high vs low cell density",p53/MDM2 complex,significant difference
